Experimental data as given in patent US7045315B2, “Methods for modulating expression of exogenous genes in mammalian systems” (The Salk Institute for Biological Studies, priority 1998, dated 2006).

Assays:
Type in all cases: cell-based
VgEcR/RXR heterodimer = test: Assay for inducer effectiveness on the ecdysone-inducible expression system (E/GRE4-ΔMTV-Luc reporter, CV-1 cells); settings: for ability to activate the expression system in the further presence of an RXR agonist: diacylhydrazine plus LG1000268 vs alone, FIG. 4
Description: CV-1 cells were maintained in DMEM supplemented with 10% fetal bovine serum. Transfections were performed using the Dotap transfection reagent (Boehringer Mannheim). All candidate inducers were dissolved in either ethanol or DMSO. Muristerone A (MurA) was used as a positive control for activation. All transfections were performed in triplicate.
The E/GRE4-ΔMTV-Luc plasmid is routinely used as a reporter. […] A CMX-β-gal reporter plasmid was included in the transfection as a control for transfection efficiency. Approximately 10 hours after transfection, the media was removed and replaced with fresh media containing varying concentrations of the putative inducers. Cells were exposed to candidate activators for 20–48 hours, then assayed for luciferase and β-galactosidase activity employing standard techniques. Luciferase values were normalized using β-galactosidase activity levels.

[1] = target: T1, ecdysone receptor (EcR) with USP (Drosophila melanogaster, UniProt P34021); test: Transient transfection reporter assay in CV-1 cells, ecdysone receptor with USP; settings: 1 μM muristerone A vs ethanol, unmodified ecdysone receptor, FIG. 1A
T1 construct: expressed in transfected cells; host or cells: CV-1 cells
T1 sequence (P34021 1-878): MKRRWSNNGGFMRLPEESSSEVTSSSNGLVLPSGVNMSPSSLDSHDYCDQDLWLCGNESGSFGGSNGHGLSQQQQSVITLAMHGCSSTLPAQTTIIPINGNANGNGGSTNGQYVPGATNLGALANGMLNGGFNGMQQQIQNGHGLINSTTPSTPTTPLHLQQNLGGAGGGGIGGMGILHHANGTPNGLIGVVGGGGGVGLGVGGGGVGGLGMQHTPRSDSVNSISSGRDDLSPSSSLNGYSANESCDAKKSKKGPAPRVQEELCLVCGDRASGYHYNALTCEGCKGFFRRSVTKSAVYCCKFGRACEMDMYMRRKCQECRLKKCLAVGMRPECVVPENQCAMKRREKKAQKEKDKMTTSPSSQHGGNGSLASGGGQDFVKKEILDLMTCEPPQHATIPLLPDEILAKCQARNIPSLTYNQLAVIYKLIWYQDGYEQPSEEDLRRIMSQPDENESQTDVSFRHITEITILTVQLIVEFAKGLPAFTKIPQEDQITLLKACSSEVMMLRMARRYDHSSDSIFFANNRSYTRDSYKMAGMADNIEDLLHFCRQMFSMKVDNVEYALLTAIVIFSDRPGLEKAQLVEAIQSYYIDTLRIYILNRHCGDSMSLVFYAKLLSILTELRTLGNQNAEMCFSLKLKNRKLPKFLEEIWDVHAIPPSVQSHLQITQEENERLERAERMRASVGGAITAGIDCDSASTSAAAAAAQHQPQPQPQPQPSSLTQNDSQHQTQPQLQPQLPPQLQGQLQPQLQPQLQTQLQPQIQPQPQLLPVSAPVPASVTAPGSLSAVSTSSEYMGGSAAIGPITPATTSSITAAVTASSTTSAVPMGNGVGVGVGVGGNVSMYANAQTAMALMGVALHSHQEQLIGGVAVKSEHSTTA
T1 sequence (P20153 1-508 partner): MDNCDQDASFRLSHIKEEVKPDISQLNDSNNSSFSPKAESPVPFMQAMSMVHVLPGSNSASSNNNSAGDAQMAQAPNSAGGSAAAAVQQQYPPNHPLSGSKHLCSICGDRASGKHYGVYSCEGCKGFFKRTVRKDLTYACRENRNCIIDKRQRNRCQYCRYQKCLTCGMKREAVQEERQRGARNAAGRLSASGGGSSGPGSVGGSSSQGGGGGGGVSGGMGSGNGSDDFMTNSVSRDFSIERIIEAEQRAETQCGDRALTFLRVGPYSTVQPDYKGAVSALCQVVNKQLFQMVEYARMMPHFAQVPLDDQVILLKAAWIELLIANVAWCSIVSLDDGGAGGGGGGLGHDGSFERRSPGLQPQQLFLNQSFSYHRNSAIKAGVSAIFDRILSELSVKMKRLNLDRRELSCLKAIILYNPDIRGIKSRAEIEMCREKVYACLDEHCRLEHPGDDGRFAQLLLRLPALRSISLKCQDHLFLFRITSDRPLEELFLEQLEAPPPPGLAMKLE
Description: (§1) CV-1 cells were maintained in DMEM supplemented with 10% Fetal Bovine Serum. Transient transfections were performed using DOTAP transfection reagent (Boehringer-Mannheim). Transfections using β-galactosidase as the reporter were assayed either by Galactolight luminescent assay (Tropix, Bedford, Mass.) or by standard liquid ONPG assay (Sigma, St. Louis, Mo). The values were normalized by co-transfection of CMX-luciferase. Transfections using luciferase as the reporter were assayed by standard techniques using luciferin and ATP. These values were normalized by co-transfection of CMX-β-galactosidase. Hormone treated cells were treated with ethanol, 50 μM Juvenile Hormone III (Sigma), 1 μM muristerone A (Zambon, Bresso, IT), or 1 μM dexamethasone (Sigma) unless otherwise noted.
(§2) To maximize the sensitivity of the invention ecdysone inducible system, modifications of the ecdysone receptor were made. The N-terminal transactivation domain of the ecdysone receptor was replaced by the corresponding domain of the glucocorticoid receptor (GR), resulting in the modified ecdysone receptor GEcR (See FIG. 1D). CV-1 cells were transfected with the plasmid CMX-GEcR encoding the modified ecdysone receptor as discussed above. […]

[2] = tested on: GEcR (modified ecdysone receptor); test: Transient transfection reporter assay in CV-1 cells, modified ecdysone receptor GEcR; settings: 1 μM muristerone A vs ethanol; CV-1 cells transfected with CMX-GEcR; FIG. 1A
Description: as §1, §2

[3] = tested on: RXR and VpEcR heterodimer; test: Transient transfection reporter assay in CV-1 cells, RXR and VpEcR; settings: 1 μM muristerone A, FIG. 1A
Description: as §1

[4] = target: T2, ecdysone receptor heterodimer with retinoid X receptor (RXR) (Drosophila melanogaster, UniProt P34021); test: Transient transfection reporter assay in CV-1 cells, USP replaced by RXR; settings: 1 μM muristerone A, FIG. 1A
T2 construct: expressed in transfected cells; host or cells: CV-1 cells
T2 sequence (P34021 1-878): T1 sequence (P34021 1-878)
T2 sequence (P19793 1-462 partner): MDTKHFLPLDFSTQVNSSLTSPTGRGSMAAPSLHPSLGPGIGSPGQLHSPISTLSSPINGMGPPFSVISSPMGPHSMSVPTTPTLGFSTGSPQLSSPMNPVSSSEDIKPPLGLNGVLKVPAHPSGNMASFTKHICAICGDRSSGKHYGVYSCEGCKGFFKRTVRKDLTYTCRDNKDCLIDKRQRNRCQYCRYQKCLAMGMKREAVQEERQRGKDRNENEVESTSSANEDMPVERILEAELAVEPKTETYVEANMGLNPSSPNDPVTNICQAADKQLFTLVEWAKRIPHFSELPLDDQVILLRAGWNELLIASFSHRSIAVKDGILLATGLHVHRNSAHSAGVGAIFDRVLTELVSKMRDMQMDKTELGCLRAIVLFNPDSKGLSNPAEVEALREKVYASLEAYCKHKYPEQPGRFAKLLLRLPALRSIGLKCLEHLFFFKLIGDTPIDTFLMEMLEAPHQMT
Description: as §1, §2

Row | SMILES | ability to activate the expression system in the further presence of an RXR agonist (VgEcR/RXR heterodimer) | activation of the ecdysone-inducible system, combination with RXR ligand (VgEcR/RXR heterodimer; MurA concentration varied, LG1000268 constant 100 nM, FIG. 3) | activation of the ecdysone-inducible system, ligand alone (VgEcR/RXR heterodimer; ligand alone over several concentrations, luciferase normalized to β-galactosidase, FIG. 3) | muristerone responsiveness (fold induction of reporter) [1] [fold] | muristerone responsiveness (fold induction of reporter) [2] [fold] | fold induction of reporter [3] [fold] | fold induction of reporter [4] [fold]
1 | Cc1cc(C)cc(C(=O)N(NC(=O)c2ccc3c(c2C)OCCO3)C(C)(C)C)c1 [N′-(3,5-dimethylbenzoyl)-N-(2-methyl-3,4-(ethylenedioxy)-benzoyl)-N′-(tert-butyl) hydrazine] | enhanced ability |  |  |  |  |  | 
2 | CCc1ccc(C(=O)NN(C(=O)c2cc(C)cc(C)c2)C(C)(C)C)cc1 [N′-(3,5-dimethylbenzoyl)-N-(4-ethylbenzoyl)-N′-(tert-butyl) hydrazine] | enhanced ability |  |  |  |  |  | 
3 | CC(C)CC[C@@H](O)[C@](C)(O)[C@H]1CC[C@@]2(O)C3=CC(=O)[C@]4(O)C[C@@H](O)[C@@H](O)C[C@]4(C)[C@H]3[C@H](O)C[C@]12C [muristerone A] |  | dramatically enhances the activation | effective inducer | 3 | 11 | 212 | 34
